Seven molecules from ChEMBL document CHEMBL1137522, “Two new phenylpiperazines with atypical antipsychotic potential” (Bioorg Med Chem Lett, 2007) can be followed below.

The target of series [1] is D(2) dopamine receptor (Rattus norvegicus, UniProt P61169). In words: Binding affinity at dopamine D2 receptor in rat striatal membranes. It counts as cell membranes, Striatum, Membrane.
A short description of series [2]: Binding affinity at adrenergic alpha 1 receptor in rat striatal membranes. It counts as cell membranes, Striatum, Membrane.
Series [3] deals with T1, 5-hydroxytryptamine receptor 1A (Rattus norvegicus, UniProt P19327).
T1 sequence (P19327 whole entry): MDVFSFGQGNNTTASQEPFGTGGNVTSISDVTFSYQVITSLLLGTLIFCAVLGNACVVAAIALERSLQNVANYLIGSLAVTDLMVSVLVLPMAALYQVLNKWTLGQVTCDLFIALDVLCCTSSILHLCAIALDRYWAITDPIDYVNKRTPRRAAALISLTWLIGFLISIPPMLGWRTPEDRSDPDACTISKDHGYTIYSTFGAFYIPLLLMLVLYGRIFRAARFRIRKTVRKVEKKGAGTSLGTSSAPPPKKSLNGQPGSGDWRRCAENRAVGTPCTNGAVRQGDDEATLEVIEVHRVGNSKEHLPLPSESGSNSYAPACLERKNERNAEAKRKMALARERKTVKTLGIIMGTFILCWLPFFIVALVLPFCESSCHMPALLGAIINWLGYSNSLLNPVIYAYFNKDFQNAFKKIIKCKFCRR
In words: Binding affinity at 5HT1A receptor in rat striatal membranes. The class given is cell membranes, Striatum, Membrane.

Series [4] concerns the target 5-hydroxytryptamine receptor 2A (Rattus norvegicus, UniProt P14842). In words: Binding affinity at 5HT2A receptor in rat striatal membranes. It counts as cell membranes, Striatum, Membrane.
Series [5] concerns Rattus norvegicus. Kind of series: Induction of catalepsy in Mill Hill hooded rat at 10 mg/kg after 30-180 min. The class given is organism-based. Details: dose 10 mg/kg. The following applies: in vivo.
The species named for series [6] is Mus musculus. In words: Antagonist effect on amphetamine-induced hyperlocomotion in CPU mouse by open field test. The class given is functional, organism-based.

Calls of active or inactive are those of the source. The calls are words filed in the database; no cut-off is given here.

Chain of 5-hydroxytryptamine receptor 2A (P14842 whole entry): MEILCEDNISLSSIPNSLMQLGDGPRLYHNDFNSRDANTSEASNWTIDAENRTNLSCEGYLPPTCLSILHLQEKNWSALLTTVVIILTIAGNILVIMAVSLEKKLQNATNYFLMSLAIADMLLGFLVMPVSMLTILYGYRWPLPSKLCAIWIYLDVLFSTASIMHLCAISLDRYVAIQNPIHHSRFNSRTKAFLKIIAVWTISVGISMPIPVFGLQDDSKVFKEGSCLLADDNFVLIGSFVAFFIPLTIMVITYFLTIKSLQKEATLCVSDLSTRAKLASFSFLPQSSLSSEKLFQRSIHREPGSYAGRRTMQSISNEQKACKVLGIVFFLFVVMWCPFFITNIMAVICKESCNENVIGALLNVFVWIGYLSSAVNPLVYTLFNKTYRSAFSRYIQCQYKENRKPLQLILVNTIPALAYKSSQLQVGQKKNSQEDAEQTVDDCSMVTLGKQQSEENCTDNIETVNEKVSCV
Chain of D(2) dopamine receptor (P61169 whole entry): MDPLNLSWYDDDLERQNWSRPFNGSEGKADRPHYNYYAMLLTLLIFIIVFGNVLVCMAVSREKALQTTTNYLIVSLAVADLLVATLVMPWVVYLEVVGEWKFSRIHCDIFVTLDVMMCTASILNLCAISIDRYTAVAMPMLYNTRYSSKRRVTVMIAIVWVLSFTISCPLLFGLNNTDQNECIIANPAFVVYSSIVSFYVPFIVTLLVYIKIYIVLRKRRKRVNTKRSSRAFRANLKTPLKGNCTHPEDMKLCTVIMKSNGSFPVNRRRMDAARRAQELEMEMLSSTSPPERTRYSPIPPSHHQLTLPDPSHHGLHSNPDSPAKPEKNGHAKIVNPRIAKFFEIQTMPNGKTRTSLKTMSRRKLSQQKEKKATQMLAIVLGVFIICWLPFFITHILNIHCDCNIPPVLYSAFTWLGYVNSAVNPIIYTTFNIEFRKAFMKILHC

In the case of `COc1ccccc1N1CCN(CCCOc2ccc3[nH]c(=S)[nH]c3c2)CC1`, the values for the Ki in series [1], in series [3] and in series [4] were 1.7 nM, 178 nM and 19.1 nM, respectively. Further, in series [2], the “Log Ki” value is on record as -8.71.

`FC(F)(F)c1cccc(N2CCN(CCCOc3ccc4[nH]c(=S)[nH]c4c3)CC2)c1`: the Ki in series [1] was 363 nM; in series [3], 100 nM; in series [4], 316 nM. Also, in series [2], the “Log Ki” value is -6.31.

With `COc1ccccc1N1CCN(CCCOc2ccc3[nH]cnc3c2)CC1`, the Ki in series [1] was 8.71 nM; in series [3] it was 15.1 nM; in series [4] it was 79.4 nM. In series [2], the “Log Ki” value was -8.23.

Consider `c1ccc(N2CCN(CCCOc3ccc4[nH]cnc4c3)CC2)cc1`, for which the Ki was 75.9 nM in series [1], 646 nM in series [3] and 13.8 nM in series [4]. Further, the Activity result in series [5] is listed as “Not Active”. Moreover, the “Log Ki” value in series [2] is given as -7.58. For the same molecule, the outcome in series [6] was Active.

`FC(F)(F)c1cccc(N2CCN(CCCOc3ccc4[nH]cnc4c3)CC2)c1`: the Ki in series [1] was 15.1 nM; in series [3], 389 nM; in series [4] it was 102 nM. Further, the “Log Ki” value in series [2] is recorded as -6.92.

In the case of `CN1CCN(C2=Nc3cc(Cl)ccc3Nc3ccccc32)CC1` [CLOZAPINE], in series [2], the “Log Ki” value was -7.65.

Consider `S=c1[nH]c2ccc(OCCCN3CCN(c4ccccc4)CC3)cc2[nH]1`, for which the inhibition constant (Ki) in series [1] was 41.7 nM; in series [3], 933 nM; in series [4], 2.04 nM. The Activity entry in series [5] is reported as “Not Active”. The “Log Ki” value in series [2] is on record as -7.53. The result in series [6] was Active.

The Ki is a measure of affinity in units of concentration, obtained from inhibition or displacement. A high value points to a looser hold on the target.
